The text below walks through data of patent US7435742B2, “Quinuclidine derivatives and pharmaceutical compositions containing the same” (Laboratorios Almirall S.A., priority 2002, dated 2008).

Each structure is given as a SMILES string.

In general, melting point refers to the temperature, or range, at which the solid turns liquid. As for `CCCCN(C(=O)O[C@H]1C[N+]2(CCCOc3ccc(F)cc3)CCC1CC2)c1ccccc1.[Cl-]`, the melting point was 126 °C.

Turning to `CCCCN(C(=O)O[C@H]1C[N+]2(CCCc3cccs3)CCC1CC2)c1ccccc1.[Br-]`, the melting point turned out to be 127 °C.

Take `O=C(O[C@H]1C[N+]2(CCOc3ccccc3)CCC1CC2)N(Cc1cccs1)c1ccccc1.[Br-]`: the melting point worked out at 133 °C.

In turn, `C=CC[N+]12CCC(CC1)[C@@H](OC(=O)N(Cc1cccs1)c1ccccc1)C2.[Br-]` gave a melting point of 110 °C.

Take `C[N+]12CCC(CC1)[C@@H](OC(=O)N(CCc1ccccc1)c1ccccc1)C2.[Br-]`: the melting point worked out at 203 °C.

Regarding `O=C(O[C@H]1C[N+]2(CCOc3ccccc3)CCC1CC2)N(Cc1cc(F)c(F)c(F)c1)c1cccc(F)c1.[Br-]`, the melting point is 173.9 to 175.5 °C.

The molecule `O=C(O[C@H]1C[N+]2(CCOc3ccccc3)CCC1CC2)N(CC1CCCCC1)c1ccccc1F.[Br-]` displayed a melting point of 73.1 to 74.5 °C.

With `O=C(O[C@H]1C[N+]2(CCCc3ccccc3)CCC1CC2)N(CC1CCCCC1)c1ccccc1F.[Br-]`, the melting point lay within 73.3 to 74.1 °C.

As to `O=C(O[C@H]1C[N+]2(CCCc3cccs3)CCC1CC2)N(Cc1ccccc1)c1ccccc1.[Br-]`, the melting point stood at 95 °C.

For the molecule `O=C(O[C@H]1C[N+]2(CCOc3ccccc3)CCC1CC2)N(Cc1ccccc1)c1ccccc1.[Br-]`, the melting point came to 117 °C.

For the molecule `O=C(O[C@H]1C[N+]2(CCCc3cccs3)CCC1CC2)N(Cc1cccs1)Cc1cccs1.[Br-]`, the melting point was 143 °C.

As for `Cc1cccc(N(Cc2cc(F)c(F)cc2F)C(=O)O[C@H]2C[N+]3(CCOc4ccccc4)CCC2CC3)c1.[Br-]`, the melting point was 137.3 to 139.1 °C.
